# Read-outs that look alike come from different tables or passages of the source.
# Legend:
# [1] = ref Hicks et al., 2007; Foehrenbacher et al., 2013a, 2013b; cited from earlier work
# [2] = ref Guise et al., 2010; cited from earlier work
# [3] = system: HCT-116 cell line panel; experiment: Anti-proliferative IC50 assay of authentic CP-506 metabolites; type: cell-based, human
# Experimental: Cells (700–1,000 per well) were seeded with 100 µl culture medium into 96-well plates and left to attach for 2 h in a humidified 37°C incubator. Compounds were prepared in culture medium and serially diluted (1:3) in the well volume. […] Aerobic experiments were performed under standard tissue culture conditions (21% O2), and the anoxic experiments were performed in parallel in a 5% H2/Pd catalyst anaerobic chamber (Shellab Bactron, Sheldon manufacturing Inc., Cornelius, OR) using pre-equilibrated media and plasticware. All anoxia experiments were conducted using a catalyst-scrubbed anaerobic chamber, unless otherwise specified, with gas oxygen measurements of <1 ppm O2. Cells were then washed three times and left to grow for 96 h before cell density determination using a sulforhodamine B (SRB) assay ([Vichai and Kirtikara, 2006]). To this end, the cells were fixed by layering 50 µl of trichloroacetic acid (40% w/v in MilliQ water) on top of the culture media (150 µl) in each well for 1 h at 4°C. Plates were rinsed under running tap water and stained with 50 µl of SRB (0.4% w/v in MilliQ water containing 1% v/v acetic acid) for 30 min at room temperature. Plates were rapidly destained by rinsing three times in tap water containing 1% (v/v) acetic acid. The stain was solubilized by adding 100 µl of 10 mM unbuffered Tris base to each well with gentle rocking for 1 h. Plates were read on a Biotek ELx808 Absorbance Microplate Reader at 490 nm using KC4 software. The IC50 value (concentration required to reduce staining to 50% of the untreated control on the same plate) for each compound was determined by interpolation using a 4-parameter logistic regression model.
# FIGURE 3 Hypoxia-dependent metabolism of CP-506 leads to the formation of a multitude of short-lived species with variable cytotoxicity. (A) Bioreductive metabolism of CP-506 under normoxic (21% O2) and anoxic conditions (<1 ppm O2). Concentrations of CP-506 and its metabolites (CP-506H, CP-506M and CP-506M-Cl2) were quantified by mass spectrometry with reference to the appropriate deuterated (D8) internal standard. Values are the mean ± SEM for three independent experiments. (B) Stability of CP-506 metabolites in culture medium (without cells) at 37°C. Concentrations were determined by mass spectrometry using standard curves generated from authenticated stocks. […] IC50 values are the mean ± SEM of duplicate wells for three independent experiments. T-tests were performed using GraphPad Prism 8 (ns, p-value > 0.05; *, p-value ≤ 0.05; **, p-value ≤ 0.01; ***, p-value ≤ 0.001).
# [4] = Media stability studies (stirred medium without serum, 37°C); type: physicochemical; details: for half-life at 100 µM: 37°C, aerobic, medium without serum/cells, read-out: Half-life (T1/2) in stirred medium
# Experimental: The stability of each compound was determined in stirred medium (without serum) maintained under aerobic conditions by the constant supply of a humidified gas mixture comprised of 21% O2, 5% CO2 with balance N2. Vials were spiked with 100 µM of the relevant compound, and samples were collected using a positive displacement pipettor for up to 3 h thereafter. The collected samples were then treated with two-volumes of ice-cold acetonitrile containing 2 µM of the relevant deuterated (D8) internal standard and stored at −80°C until LC-MS/MS analysis.
# (§1) The LC system for tandem MS consisted of an Agilent 1200 autosampler (4°C) and binary pump, a 3.0 × 50 mm, 1.8-micron Zorbax SB-C18 column (Agilent; PN: 827975-302) and 2.1 × 7 mm guard column (Alltech, IL) maintained at 35°C, at a pressure of <400 bar and flow rate of 0.3 ml/min. The mobile phase comprised a gradient of 0.01% formic acid in 80% acetonitrile - 20% water, v/v (solvent A), and 0.01% formic acid in water (solvent B). Initial mobile phase composition was 20% solvent A and 80% solvent B, increasing to 60% A (0–3 min) then 80% A (3–5.45 min), returning to initial conditions (5.5–6 min). Post-run time was 1 min, and the total run time was […]. Mass spectrometric detection was carried out using an Agilent 6410 triple quadrupole mass spectrometer equipped with a multimode ionization (MMI) source. The mass spectrometer was operated in electrospray positive ionization mode using multiple reaction monitoring (MRM), with Q1 & Q3 set to unit resolution ([…]). The electrospray ionization parameters, optimized for the parent molecular ion ([M+H]+) abundance were: drying gas temperature 325°C, vaporiser temperature 150°C, drying gas flow 5 L/min, nebuliser pressure 50 psi, capillary voltage 1.8 kV, Delta EMV 300 V. Ultra-pure nitrogen was used as collision gas. The divert valve feature of the Agilent 6410 triple quadrupole mass spectrometer was utilised to prevent the eluate from entering the ionisation source chamber during the first 0.5 min of each run. For CP-506 samples, positively charged ions representing the [M+H]+ for CP-506 and CP-506-D8 were collisionally dissociated to form specific product ions which were monitored in MS2 (unit resolution). The MRM transition, ionization mode, collision energy, dwell time, fragmentor voltage and retention time for all compounds is provided in Supplementary Table S2. Agilent MassHunter software (v.4.04.00) was used for data acquisition and chromatographic peak integration.
# [5] = system: HCT-116 cells (PORko-G, HCT-116 WT, POR-R); experiment: Cellular metabolism assay (LC-MS/MS of reduced metabolites); type: in vitro ADME, human; details: anoxic cultures
# Experimental: Aerobic and anoxic conditions were achieved as described above. Cells (5 x 10^5 per well) were seeded with 350 µl medium in duplicate into 24-well plates and left to attach for 2 h in a humidified 37°C incubator. A working solution of CP-506 was prepared in culture medium to achieve a 100 µM concentration in each well after the addition of a 500 µl volume. Plates were exposed to drug for 1 h in a humidified 37°C incubator. Metabolism was then halted by the addition of two-volumes of ice-cold acetonitrile containing 2 µM of internal standard for each analyte. Samples were stored at −80°C until LC-MS/MS analysis.
# as §1
# [6] = system: POR-R MCLs; details: established value for the internal standard; ref Wilson et al., 2004; cited from earlier work
# [7] = stirred medium without serum or cells
structure (smiles),measurement,setting,value
"CS(=O)(=O)OCCN(CCBr)c1c(C(=O)NCCO)cc([N+](=O)[O-])cc1[N+](=O)[O-] [PR-104A, reference compound]",KO2 (O2 concentration of half-maximal activation),[1],0.126 µM O2
same,Safe human exposure levels as percent of those observed in mice,[2],10–29%
"CCN1CCN(C(=O)c2cc(N(CCCl)CCCl)c(S(C)(=O)=O)cc2NO)CC1 [CP-506H-Cl2, (5-(Bis(2-chloroethyl)amino)-2-(hydroxyamino)-4-(methylsulfonyl)phenyl)(4-ethylpiperazin-1-yl)methanone]",Anti-proliferative IC50 of metabolite,"[3]; direct exposure of monolayers to authentic metabolite, Figure 3C: 5 days, normoxic 21% O2",limited potency
same,half-life at 100 µM,[4],2.35 h
same,Fold longer half-life than CP-506H or CP-506M,"[4]; stirred medium, Figure 3B",≥ 10 fold
"CCN1CCN(C(=O)c2cc(N(CCO)CCO)c(S(C)(=O)=O)cc2NO)CC1 [CP-506H-(OH)2, (5-(Bis(2-hydroxyethyl)amino)-2-(hydroxyamino)-4-(methylsulfonyl)phenyl)(4-ethylpiperazin-1-yl)methanone]",Detection of metabolite in anoxic cultures,[5],undetectable
same,half-life at 100 µM,[4]; [7],0.0417 h
"CCN1CCN(C(=O)c2cc(N(CCO)CCO)c(S(C)(=O)=O)cc2N)CC1 [CP-506M-(OH)2, (2-Amino-5-(bis(2-hydroxyethyl)amino)-4-(methylsulfonyl)phenyl)(4-ethylpiperazin-1-yl)methanone]",Concentration up to which the cell line panel was not sensitive,[3]; Figure 3C,> 100 µM
same,half-life at 100 µM,[4]; [7],6.56 h
N[14C](N)=O [[^14C]-urea],DMCL in HCT-116 MCLs,[6],3.67 x 10^−7 cm^2 s^−1
